Test system: Male C57B/6 mice
Test: Pentylenetetrazol (PTZ)-induced convulsions in mice
Assay type: in vivo
Details: for Latency to first convulsion: convulsion level 3 or higher; for Number of events Myoclonic: level 3+level 4 events; for Number of events Myoclonic / Number of events Clonic / Number of events Tonic-Clonic: scored 10 minutes; for Number of events Clonic: level 5 events; for Number of events Tonic-Clonic: level 6+level 7 events
Procedure: Male C57B/6 mice (20-25 g) were administered intraperitoneal Compound A (1 mg/kg), Compound B (1 or 10 mg/kg), Compound C (1 mg/kg), diazepam (0.5 mg/kg), gabapentin (50 mg/kg), or vehicle (ddH 2O) prior to treatment with pentylenetetrazol (PTZ, 50 mg/kg IP). Compounds A, B, C, and gabapentin were administered 60 minutes before, and diazepam or vehicle was administered 30 minutes before PTZ. Immediately following PTZ injection, mice were individually placed in an observation cage and the latency to onset of first convulsion (level 3 or higher; Table 2) was recorded, as well as the number of each type of convulsion (see Table 2 for scoring method modified from the scale used by Rizwan et al, Pol. J. Pharmacol., 55(6):965-71 (2003)).
Level I and 2 behaviors were not considered convulsions, but were scored to keep track of any possible sedative or abnormal effect following drug treatment.
Data are expressed as the number of myoclonic convulsions (level 3+level 4 events), number of clonic convulsions (level 5 events), and number of tonic-clonic events (level 6+level 7 events; Table 3-1), as well as the latency to first convulsion onset (in seconds). The sum of each convulsion type/mouse (myclonic, clonic, or clonic-tonic) was entered into GraphPad Prism and analyzed by One-Way ANOVA with post-hoc Dunnett's Multiple Comparisons Tests relative to vehicle+PTZ. Overall significance was established when P<0.0125 (corrected for number of groups). Post-hoc comparisons were considered significant when P<0.05.

[1] = 1 mg/kg intraperitoneal, 60 minutes before PTZ 50 mg/kg IP
[2] = 10 mg/kg intraperitoneal, 60 minutes before PTZ 50 mg/kg IP
[3] = 0.5 mg/kg intraperitoneal, 30 minutes before PTZ 50 mg/kg IP
[4] = 50 mg/kg intraperitoneal, 60 minutes before PTZ 50 mg/kg IP

Structure (SMILES) | Latency to first convulsion [1] | Number of events Myoclonic [1] | Number of events Clonic [1] | Number of events Tonic-Clonic [1] | other results
NC(C(=O)N1CCCC1)C(O)c1ccncc1 (racemic) [Compound A] | 342.8 ± 76.7 s | 1.40 ± 0.4 | 0.2 ± 0.1 | 0.5 ± 0.2 | 
N[C@@H](C(=O)N1CCCC1)[C@@H](O)c1ccncc1 [Compound B] | 208.8 ± 84.29 s | 0.83 ± 0.31 | 0.83 ± 0.17 | 0.0 ± 0.0 | Latency to first convulsion [2]: 308.9 ± 92.55 s; Number of events Myoclonic [2]: 0.17 ± 0.17; Number of events Clonic [2]: 0.50 ± 0.22; Number of events Tonic-Clonic [2]: 0.33 ± 0.21
N[C@@H](C(=O)N1CCCC1)[C@@H](O)c1ccc(F)cc1 [Compound C] | 367.1 ± 78.30 s | 2.00 ± 1.02 | 0.10 ± 0.10 | 0.0 ± 0.0 | 
CN1C(=O)CN=C(c2ccccc2)c2cc(Cl)ccc21 [Diazepam, reference compound] |  |  |  |  | Latency to first convulsion [3]: 546.4 ± 53.60 s; Number of events Myoclonic [3]: 0.0 ± 0.0; Number of events Clonic [3]: 0.0 ± 0.0; Number of events Tonic-Clonic [3]: 0.60 ± 0.60
NCC1(CC(=O)O)CCCCC1 [Gabapentin, reference compound] |  |  |  |  | Latency to first convulsion [4]: 194.8 ± 30.41 s; Number of events Myoclonic [4]: 1.20 ± 0.55; Number of events Clonic [4]: 0.90 ± 0.18; Number of events Tonic-Clonic [4]: 0.20 ± 0.13
